Data on two molecules can be found in patent publication US9872829B2, “Core sheath drug delivery devices” (Chemo Research, S.L., priority 2012, dated 2018).

SMILES strings stand for the structures. Where only a bound is given, the exact number is not on record here.

The conditions of the series: 21 days.

Procedure: Etonogestrel (ETO) solubility in the hydrophilic polyurethane, Hydrothane AL 25-80A, was determined by evaluating its in-vitro elution (IVE) from core sheath IVRs containing ETO in the core at various loadings.
The core polymer was Hydrothane AL 25-80A and the sheath polymer EVA VA content 28% w/w.

For `C#C[C@]1(O)CC[C@H]2[C@@H]3CCc4cc(O)ccc4[C@H]3CC[C@@]21C` [EE, Ethinyl Estradiol], the “Csat in Hydrothane AL 25-80A (concentration concluded to be below Csat)” value is given as greater than 0.25%.
With `C#C[C@]1(O)CC[C@H]2[C@@H]3CCC4=CC(=O)CC[C@@H]4[C@H]3C(=C)C[C@@]21CC` [ETO, Etonogestrel] the figure was greater than 1.00%.
